Test results taken from BindingDB's records for doi:10.1016/j.bioorg.2016.12.008 (Fayoum University, 2017).

Key:
[1] = target: T1, Prostaglandin G/H synthase 1 (Ovis aries, UniProt P05979); assay: In Vitro Cyclooxygenase (COX) Inhibition Assay
T1 sequence (P05979 whole entry): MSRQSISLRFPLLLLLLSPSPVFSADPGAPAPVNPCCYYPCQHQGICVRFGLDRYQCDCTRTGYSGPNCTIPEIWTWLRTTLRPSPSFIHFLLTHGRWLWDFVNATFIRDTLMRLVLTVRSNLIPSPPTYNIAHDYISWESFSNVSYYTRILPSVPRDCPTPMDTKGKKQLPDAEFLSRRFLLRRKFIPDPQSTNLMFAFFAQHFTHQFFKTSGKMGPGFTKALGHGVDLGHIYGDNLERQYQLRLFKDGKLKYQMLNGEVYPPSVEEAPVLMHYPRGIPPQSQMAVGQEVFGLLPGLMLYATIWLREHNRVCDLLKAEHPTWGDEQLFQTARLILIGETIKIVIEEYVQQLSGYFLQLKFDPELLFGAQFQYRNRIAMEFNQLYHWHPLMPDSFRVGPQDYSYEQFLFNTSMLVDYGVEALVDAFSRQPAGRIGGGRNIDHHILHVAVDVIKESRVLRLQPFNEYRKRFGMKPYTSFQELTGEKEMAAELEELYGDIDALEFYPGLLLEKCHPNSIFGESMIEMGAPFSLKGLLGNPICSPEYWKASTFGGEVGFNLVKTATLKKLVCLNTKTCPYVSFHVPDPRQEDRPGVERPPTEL
Procedure: (§1) Different concentrations of either celecoxib or tested compounds were incubated with the enzymes for a period of 5 min at 25 °C. After the incubation period the colorimetric substrate and arachidonic acid were added after that the absorbance was measured at 590 nm using plate reader.

[2] = target: T2, Prostaglandin G/H synthase 2 (Ovis aries, UniProt P79208); assay: In Vitro Cyclooxygenase (COX) Inhibition Assay
T2 sequence (P79208 whole entry): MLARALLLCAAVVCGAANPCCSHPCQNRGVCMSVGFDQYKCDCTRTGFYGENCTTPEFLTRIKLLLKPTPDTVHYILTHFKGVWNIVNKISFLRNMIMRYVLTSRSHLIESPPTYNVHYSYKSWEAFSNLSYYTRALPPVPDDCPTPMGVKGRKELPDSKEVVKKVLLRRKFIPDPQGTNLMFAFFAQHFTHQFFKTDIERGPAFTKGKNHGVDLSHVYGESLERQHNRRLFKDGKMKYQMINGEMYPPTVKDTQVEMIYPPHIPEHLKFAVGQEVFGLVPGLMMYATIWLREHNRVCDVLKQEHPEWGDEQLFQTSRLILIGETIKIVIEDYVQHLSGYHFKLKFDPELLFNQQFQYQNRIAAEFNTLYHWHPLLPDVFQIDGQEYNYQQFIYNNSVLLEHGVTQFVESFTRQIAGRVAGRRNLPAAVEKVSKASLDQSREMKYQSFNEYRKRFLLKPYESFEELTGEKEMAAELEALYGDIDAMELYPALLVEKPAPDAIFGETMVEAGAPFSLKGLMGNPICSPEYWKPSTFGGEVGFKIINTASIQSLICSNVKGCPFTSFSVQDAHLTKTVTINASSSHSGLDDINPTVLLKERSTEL
Procedure: as §1

SMILES | IC50 [1] [µM] | IC50 [2] [µM]
Cc1ccc(C2CC(c3ccc(NS(C)(=O)=O)cc3)=NN2c2ccc(S(N)(=O)=O)cc2)cc1 (stereo not drawn) [1-(4-Aminosulfonylphenyl)-3-(4-methanesulfonylaminophenyl)-5-(4-tolyl)-4,5-dihydro-1H-pyrazole (6b)] | 23.6 | 7.5
CS(=O)(=O)Nc1ccc(C2=NN(c3ccc(S(N)(=O)=O)cc3)C(c3ccccc3)C2)cc1 (stereo not drawn) [1-(4-Aminosulfonylphenyl)-3-(4-methanesulfonylaminophenyl)-5-phenyl-4,5-dihydro-1H-pyrazole (6a)] | 7.6 | 1.3
CC(C)Cc1ccc(-c2cc(-c3ccco3)c(C#N)c(=O)[nH]2)cc1 [4-(2-Furyl)-6-(4-isobutylphenyl)-2-oxo-1,2-dihydropyridine-3-carbonitrile (4k)] | 7.3 | 1.11
CS(=O)(=O)Nc1ccc(-c2cc(-c3ccco3)c(C#N)c(=O)[nH]2)cc1 [4-(2-Furyl)-6-(4-methanesulfonylaminophenyl)-2-oxo-1,2-dihydropyridine-3-carbonitrile (4q)] | 9.8 | 2.9
N#Cc1c(-c2ccco2)cc(-c2ccc([N+](=O)[O-])cc2)[nH]c1=O [4-(2-Furyl)-6-(4-nitrophenyl)-2-oxo-1,2-dihydropyridine-3-carbonitrile (4e)] | 8.9 | 1.2
CC(C)Cc1ccc(-c2cc(-c3ccc(Cl)cc3)c(C#N)c(=O)[nH]2)cc1 [4-(4-Chlorophenyl)-6-(4-isobutylphenyl)-2-oxo-1,2-dihydropyridine-3-carbonitrile (4i)] | 14.2 | 5.1
N#Cc1c(-c2ccc(F)cc2)cc(-c2ccc([N+](=O)[O-])cc2)[nH]c1=O [4-(4-Fluorophenyl)-6-(4-nitrophenyl)-2-oxo-1,2-dihydropyridine-3-carbonitrile (4d)] | 13.4 | 4.6
N#Cc1c(-c2ccc(Cl)cc2)cc(-c2ccc([N+](=O)[O-])cc2)[nH]c1=O [4-(4-chlorophenyl)-6-(4-nitrophenyl)-2-oxo-1,2-dihydropyridine-3-carbonitrile (4c)] | 23.4 | 7.3
CC(C)Cc1ccc(-c2cc(-c3cccs3)c(C#N)c(=O)[nH]2)cc1 [6-(4-Isobutylphenyl)-2-oxo-4-(2-thienyl)-1,2-dihydropyridine-3-carbonitrile (4l)] | 12.7 | 3.7
Cc1ccc(-c2cc(-c3ccc(CC(C)C)cc3)[nH]c(=O)c2C#N)cc1 [6-(4-Isobutylphenyl)-2-oxo-4-(p-tolyl)-1,2-dihydropyridine-3-carbonitrile (4h)] | 11.2 | 2.7
CS(=O)(=O)Nc1ccc(-c2cc(-c3cccs3)c(C#N)c(=O)[nH]2)cc1 [6-(4-Methanesulfonylaminophenyl)-2-oxo-4-(2-thienyl)-1,2-dihydropyridine-3-carbonitrile (4r)] | 32.1 | 10.2
Cc1ccc(-c2cc(-c3ccc(NS(C)(=O)=O)cc3)[nH]c(=O)c2C#N)cc1 [6-(4-Methanesulfonylaminophenyl)-2-oxo-4-(4-tolyl)-1,2-dihydropyridine-3-carbonitrile (4n)] | 8.6 | 1.3
CS(=O)(=O)Nc1ccc(-c2cc(-c3ccccc3)c(C#N)c(=O)[nH]2)cc1 [6-(4-Methanesulfonylaminophenyl)-2-oxo-4-phenyl-1,2-dihydropyridine-3-carbonitrile (4m)] | 9.4 | 1.6
Cc1ccc(-c2cc(-c3ccc([N+](=O)[O-])cc3)[nH]c(=O)c2C#N)cc1 [6-(4-Nitrophenyl)-2-oxo-4-(p-tolyl)-1,2-dihydropyridine-3-carbonitrile (4b)] | 12.9 | 2.9
N#Cc1c(-c2cccs2)cc(-c2ccc([N+](=O)[O-])cc2)[nH]c1=O [6-(4-nitrophenyl)-2-oxo-4-(thiophen-2-yl)-1,2-dihydropyridine-3-carbonitrile (4f)] | 6.8 | 0.87
N#Cc1c(-c2ccccc2)cc(-c2ccc([N+](=O)[O-])cc2)[nH]c1=O [6-(4-nitrophenyl)-2-oxo-4-phenyl-1,2-dihydropyridine-3-carbonitrile (4a)] | 12.4 | 3.8

Next, values leading:

IC50 [1] [µM] | IC50 [2] [µM] | SMILES
16.5 | 3.5 | CS(=O)(=O)Nc1ccc(C2=NN(c3ccc(S(N)(=O)=O)cc3)C(c3ccco3)C2)cc1 (stereo not drawn) [1-(4-Aminosulfonylphenyl)-5-(2-furyl)-3-(4-methanesulfonylaminophenyl)-4,5-dihydro-1H-pyrazole (6e)]
25.1 | 7.8 | CS(=O)(=O)Nc1ccc(C2=NN(c3ccc(S(N)(=O)=O)cc3)C(c3cccs3)C2)cc1 (stereo not drawn) [1-(4-Aminosulfonylphenyl)-5-(2-thienyl)-3-(4-methanesulfonylaminophenyl)-4,5-dihydro-1H-pyrazole (6f)]
9.7 | 2.4 | CS(=O)(=O)Nc1ccc(C2=NN(c3ccc(S(N)(=O)=O)cc3)C(c3ccc(Cl)cc3)C2)cc1 (stereo not drawn) [1-(4-Aminosulfonylphenyl)-5-(4-chlorophenyl)-3-(4-methanesulfonylaminophenyl)-4,5-dihydro-1H-pyrazole (6c)]
18.7 | 3.9 | CS(=O)(=O)Nc1ccc(C2=NN(c3ccc(S(N)(=O)=O)cc3)C(c3ccc(F)cc3)C2)cc1 (stereo not drawn) [1-(4-Aminosulfonylphenyl)-5-(4-fluorophenyl)-3-(4-methanesulfonylaminophenyl)-4,5-dihydro-1H-pyrazole (6d)]
15.3 | 3.4 | CS(=O)(=O)Nc1ccc(-c2cc(-c3ccc(Cl)cc3)c(C#N)c(=O)[nH]2)cc1 [4-(4-Chlorophenyl)-6-(4-methanesulfonylaminophenyl)-2-oxo-1,2-dihydropyridine-3-carbonitrile (4o)]
6.5 | 0.93 | CC(C)Cc1ccc(-c2cc(-c3ccc(F)cc3)c(C#N)c(=O)[nH]2)cc1 [4-(4-Fluorophenyl)-6-(4-isobutylphenyl)-2-oxo-1,2-dihydropyridine-3-carbonitrile (4j)]
10.7 | 2.5 | CS(=O)(=O)Nc1ccc(-c2cc(-c3ccc(F)cc3)c(C#N)c(=O)[nH]2)cc1 [4-(4-Fluorophenyl)-6-(4-methanesulfonylaminophenyl)-2-oxo-1,2-dihydropyridine-3-carbonitrile (4p)]
13.1 | 3.4 | CC(C)Cc1ccc(-c2cc(-c3ccccc3)c(C#N)c(=O)[nH]2)cc1 [6-(4-Isobutylphenyl)-2-oxo-4-phenyl-1,2-dihydropyridine-3-carbonitrile (4g)]
